Test results as given in PubChem BioAssay (NCI).
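Cultured in 96-well plates, cells were exposed to test compound for 48 hours across five concentrations. The concentration for full growth arrest is given as TGI.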

Legend:
Assay in all cases: NCI tumour cell line growth inhibition, 48 h
CCRF-CEM leukemia = test system: CCRF-CEM leukemia
SK-MEL-2 melanoma = test system: SK-MEL-2 melanoma
COLO 205 colon = test system: COLO 205 colon
M14 melanoma = test system: M14 melanoma
RXF 393 renal = test system: RXF 393 renal
K-562 leukemia = test system: K-562 leukemia
UACC-62 melanoma = test system: UACC-62 melanoma
SNB-75 CNS = test system: SNB-75 CNS
SK-MEL-28 melanoma = test system: SK-MEL-28 melanoma
UACC-257 melanoma = test system: UACC-257 melanoma
HT29 colon = test system: HT29 colon
OVCAR-5 ovarian = test system: OVCAR-5 ovarian
HOP-18 NSCLC = test system: HOP-18 NSCLC
MALME-3M melanoma = test system: MALME-3M melanoma
SNB-78 CNS = test system: SNB-78 CNS
SNB-19 CNS = test system: SNB-19 CNS
DLD-1 colon = test system: DLD-1 colon
SF-268 CNS = test system: SF-268 CNS
KM20L2 colon = test system: KM20L2 colon
SW-620 colon = test system: SW-620 colon
MOLT-4 leukemia = test system: MOLT-4 leukemia
RPMI-8226 leukemia = test system: RPMI-8226 leukemia
UO-31 renal = test system: UO-31 renal
NCI-H460 lung = test system: NCI-H460 lung
SN12C renal = test system: SN12C renal
SF-295 CNS = test system: SF-295 CNS
RXF-631 renal = test system: RXF-631 renal
SR leukemia = test system: SR leukemia
SK-MEL-5 melanoma = test system: SK-MEL-5 melanoma
786-0 renal = test system: 786-0 renal
HCC-2998 colon = test system: HCC-2998 colon
HOP-92 NSCLC = test system: HOP-92 NSCLC
OVCAR-8 ovarian = test system: OVCAR-8 ovarian
U251 CNS = test system: U251 CNS
NCI-H226 lung = test system: NCI-H226 lung
NCI-H522 lung = test system: NCI-H522 lung
LXFL 529 NSCLC = test system: LXFL 529 NSCLC
SF-539 CNS = test system: SF-539 CNS
DMS 114 small cell lung = test system: DMS 114 small cell lung
A549 NSCLC = test system: A549 NSCLC
HCT-116 colon = test system: HCT-116 colon
HCT-15 colon = test system: HCT-15 colon
IGROV1 ovarian = test system: IGROV1 ovarian
HL-60(TB) leukemia = test system: HL-60(TB) leukemia
OVCAR-4 ovarian = test system: OVCAR-4 ovarian
EKVX NSCLC = test system: EKVX NSCLC
KM12 colon = test system: KM12 colon
HOP-62 NSCLC = test system: HOP-62 NSCLC
SK-OV-3 ovarian = test system: SK-OV-3 ovarian
DMS 273 small cell lung = test system: DMS 273 small cell lung
CAKI-1 renal = test system: CAKI-1 renal
ACHN renal = test system: ACHN renal
OVCAR-3 ovarian = test system: OVCAR-3 ovarian
NCI-H23 lung = test system: NCI-H23 lung
LOX IMVI melanoma = test system: LOX IMVI melanoma
XF 498 CNS = test system: XF 498 CNS
M19-MEL melanoma = test system: M19-MEL melanoma
TK-10 renal = test system: TK-10 renal

Cc1nc(-c2ccccc2)cc2c1c(=O)oc1ccccc12
TGI (CCRF-CEM leukemia): > 100 µM | TGI (SK-MEL-2 melanoma): > 100 µM | TGI (COLO 205 colon): > 100 µM | TGI (M14 melanoma): > 100 µM | TGI (RXF 393 renal): > 100 µM | TGI (K-562 leukemia): > 100 µM | TGI (UACC-62 melanoma): > 100 µM | TGI (SNB-75 CNS): > 100 µM | TGI (SK-MEL-28 melanoma): > 100 µM | TGI (UACC-257 melanoma): > 100 µM | TGI (HT29 colon): > 100 µM | TGI (OVCAR-5 ovarian): > 100 µM | TGI (HOP-18 NSCLC): > 100 µM | TGI (MALME-3M melanoma): > 100 µM | TGI (SNB-78 CNS): > 100 µM | TGI (SNB-19 CNS): > 100 µM | TGI (DLD-1 colon): > 100 µM | TGI (SF-268 CNS): > 100 µM | TGI (KM20L2 colon): > 100 µM | TGI (SW-620 colon): > 100 µM | TGI (MOLT-4 leukemia): > 100 µM | TGI (RPMI-8226 leukemia): > 100 µM | TGI (UO-31 renal): > 100 µM | TGI (NCI-H460 lung): > 100 µM | TGI (SN12C renal): > 100 µM | TGI (SF-295 CNS): > 100 µM | TGI (RXF-631 renal): > 100 µM | TGI (SR leukemia): > 100 µM | TGI (SK-MEL-5 melanoma): > 100 µM | TGI (786-0 renal): > 100 µM | TGI (HCC-2998 colon): > 100 µM | TGI (HOP-92 NSCLC): > 100 µM | TGI (OVCAR-8 ovarian): > 100 µM | TGI (U251 CNS): > 100 µM | TGI (NCI-H226 lung): > 100 µM | TGI (NCI-H522 lung): > 100 µM | TGI (LXFL 529 NSCLC): > 100 µM | TGI (SF-539 CNS): > 100 µM | TGI (DMS 114 small cell lung): > 100 µM | TGI (A549 NSCLC): > 100 µM | TGI (HCT-116 colon): > 100 µM | TGI (HCT-15 colon): > 100 µM | TGI (IGROV1 ovarian): > 100 µM | TGI (HL-60(TB) leukemia): > 100 µM | TGI (OVCAR-4 ovarian): > 100 µM | TGI (EKVX NSCLC): > 100 µM | TGI (KM12 colon): > 100 µM | TGI (HOP-62 NSCLC): > 100 µM | TGI (SK-OV-3 ovarian): > 100 µM | TGI (DMS 273 small cell lung): > 100 µM | TGI (CAKI-1 renal): > 100 µM | TGI (ACHN renal): > 100 µM | TGI (OVCAR-3 ovarian): > 100 µM | TGI (NCI-H23 lung): > 100 µM

CS(=O)(=O)c1c(N)c2nc(Cl)cn2c2nc3ccccc3nc12
TGI (CCRF-CEM leukemia): > 100 µM | TGI (SK-MEL-2 melanoma): > 100 µM | TGI (COLO 205 colon): > 100 µM | TGI (M14 melanoma): > 100 µM | TGI (K-562 leukemia): > 100 µM | TGI (UACC-62 melanoma): > 100 µM | TGI (SNB-75 CNS): > 100 µM | TGI (SK-MEL-28 melanoma): > 100 µM | TGI (UACC-257 melanoma): > 100 µM | TGI (HT29 colon): > 100 µM | TGI (OVCAR-5 ovarian): > 100 µM | TGI (MALME-3M melanoma): > 100 µM | TGI (SNB-78 CNS): > 100 µM | TGI (SNB-19 CNS): > 100 µM | TGI (DLD-1 colon): > 100 µM | TGI (SF-268 CNS): > 100 µM | TGI (KM20L2 colon): > 100 µM | TGI (SW-620 colon): > 100 µM | TGI (MOLT-4 leukemia): > 100 µM | TGI (RPMI-8226 leukemia): > 100 µM | TGI (UO-31 renal): > 100 µM | TGI (NCI-H460 lung): > 100 µM | TGI (SN12C renal): > 100 µM | TGI (SF-295 CNS): > 100 µM | TGI (RXF-631 renal): > 100 µM | TGI (SR leukemia): > 100 µM | TGI (SK-MEL-5 melanoma): > 100 µM | TGI (786-0 renal): > 100 µM | TGI (HCC-2998 colon): > 100 µM | TGI (OVCAR-8 ovarian): > 100 µM | TGI (U251 CNS): > 100 µM | TGI (LOX IMVI melanoma): > 100 µM | TGI (NCI-H226 lung): > 100 µM | TGI (NCI-H522 lung): > 100 µM | TGI (LXFL 529 NSCLC): > 100 µM | TGI (SF-539 CNS): > 100 µM | TGI (DMS 114 small cell lung): > 100 µM | TGI (A549 NSCLC): > 100 µM | TGI (HCT-116 colon): > 100 µM | TGI (HCT-15 colon): > 100 µM | TGI (IGROV1 ovarian): > 100 µM | TGI (XF 498 CNS): > 100 µM | TGI (OVCAR-4 ovarian): > 100 µM | TGI (EKVX NSCLC): > 100 µM | TGI (M19-MEL melanoma): > 100 µM | TGI (KM12 colon): > 100 µM | TGI (HOP-62 NSCLC): > 100 µM | TGI (SK-OV-3 ovarian): > 100 µM | TGI (DMS 273 small cell lung): > 100 µM | TGI (CAKI-1 renal): > 100 µM | TGI (ACHN renal): > 100 µM | TGI (OVCAR-3 ovarian): > 100 µM | TGI (NCI-H23 lung): > 100 µM

O/N=C1/C(=C/c2ccc(Oc3ccccc3)cc2)CCCC1C(NO)c1ccc(Oc2ccccc2)cc1 (stereo not drawn)
TGI (CCRF-CEM leukemia): 61.2 µM | TGI (SK-MEL-2 melanoma): > 100 µM | TGI (COLO 205 colon): 35.8 µM | TGI (M14 melanoma): > 100 µM | TGI (RXF 393 renal): 52.2 µM | TGI (K-562 leukemia): > 100 µM | TGI (UACC-62 melanoma): > 100 µM | TGI (SNB-75 CNS): > 100 µM | TGI (SK-MEL-28 melanoma): > 100 µM | TGI (UACC-257 melanoma): > 100 µM | TGI (HT29 colon): 30.5 µM | TGI (OVCAR-5 ovarian): > 100 µM | TGI (HOP-18 NSCLC): > 100 µM | TGI (MALME-3M melanoma): > 100 µM | TGI (SNB-78 CNS): > 100 µM | TGI (SNB-19 CNS): > 100 µM | TGI (DLD-1 colon): > 100 µM | TGI (TK-10 renal): > 100 µM | TGI (SF-268 CNS): > 100 µM | TGI (KM20L2 colon): 26.7 µM | TGI (SW-620 colon): > 100 µM | TGI (MOLT-4 leukemia): 33.2 µM | TGI (RPMI-8226 leukemia): 76.1 µM | TGI (UO-31 renal): 76.4 µM | TGI (NCI-H460 lung): > 100 µM | TGI (SN12C renal): 96.7 µM | TGI (SF-295 CNS): > 100 µM | TGI (RXF-631 renal): > 100 µM | TGI (SK-MEL-5 melanoma): 36.7 µM | TGI (786-0 renal): > 100 µM | TGI (HCC-2998 colon): > 100 µM | TGI (HOP-92 NSCLC): 56.3 µM | TGI (OVCAR-8 ovarian): > 100 µM | TGI (U251 CNS): > 100 µM | TGI (LOX IMVI melanoma): 29.1 µM | TGI (NCI-H226 lung): > 100 µM | TGI (LXFL 529 NSCLC): > 100 µM | TGI (SF-539 CNS): > 100 µM | TGI (DMS 114 small cell lung): > 100 µM | TGI (A549 NSCLC): > 100 µM | TGI (HCT-116 colon): 24.6 µM | TGI (HCT-15 colon): > 100 µM | TGI (IGROV1 ovarian): > 100 µM | TGI (HL-60(TB) leukemia): 25.6 µM | TGI (XF 498 CNS): > 100 µM | TGI (OVCAR-4 ovarian): > 100 µM | TGI (EKVX NSCLC): > 100 µM | TGI (M19-MEL melanoma): > 100 µM | TGI (KM12 colon): > 100 µM | TGI (HOP-62 NSCLC): > 100 µM | TGI (SK-OV-3 ovarian): > 100 µM | TGI (DMS 273 small cell lung): > 100 µM | TGI (CAKI-1 renal): 88.6 µM | TGI (ACHN renal): > 100 µM | TGI (OVCAR-3 ovarian): > 100 µM | TGI (NCI-H23 lung): 63.3 µM
